Experimental data taken from US6982270B1, “3,4-dihydro-(1H)quinazolin-2-one compounds as CSBP/p38 kinase inhibitors” (SmithKline Beecham Corporation, priority 1999, dated 2006).

Biological target: T1, CSBP/p38 (Homo sapiens, UniProt Q16539)
T1 construct: made in house; host or cells: yeast
Experiment: CSBP/p38 Kinase Assay
Assay type: biochemical
Details: 32P transfer from ATP to EGFR-derived peptide T669; yeast-expressed, activated p38; 0.17 mM ATP; "this binding assay or a similar assay"; read-out: IC50 (positive inhibitory activity)
Experimental: This assay measures the CSBP/p38-catalyzed transfer of ^32p from [a−^32P]ATP to threonine residue in an epidermal growth factor receptor (EGFR)-derived peptide (T669) with the following sequence: […] (residues 661-681). (See Gallagher et al., “Regulation of Stress Induced Cytokine Production by Pyridinyl Imidazoles: Inhibition of CSBP Kinase”, BioOrganic & Medicinal Chemistry, 1997, 5, 49-64).
Reactions were carried in round bottom 96 well plate (from Coming) in a […] volume. Reactions contained (in final concentration): 25 mM Hepes, pH 7.5; 8 mM MgCl2; 0.17 mM ATP (the Km[ATP] of p38 (see Lee et al., Nature 300, n72 pg. 639-746 (December 1994)); 2.5 uCi of [g-32P]ATP; 0.2 mM sodium orthovanadate; 1 mM DTT; 0.1% BSA; 10% glycerol; 0.67 mM T669 peptide; and 24 nM of yeast-expressed, activated and purified p38. Reactions were initiated by the addition of [gamma-32P]Mg/ATP, and incubated for 25 min. at 37° C. Inhibitors (dissolved in DMSO) were incubated with the reaction mixture on ice for 30 minutes prior to adding the 32P-ATP. Final DMSO concentration was 0.16%. Reactions were terminated by adding 10 ul of 0.3 M phosphoric acid, and phosphorylated peptide was isolated from the reactions by capturing it on p81 phosphocellulose filters. Filters were washed with 75 mM phosphoric acids, and incorporated 32P was quantified using beta scintillation counter. […]

T1 sequence (Q16539 whole entry): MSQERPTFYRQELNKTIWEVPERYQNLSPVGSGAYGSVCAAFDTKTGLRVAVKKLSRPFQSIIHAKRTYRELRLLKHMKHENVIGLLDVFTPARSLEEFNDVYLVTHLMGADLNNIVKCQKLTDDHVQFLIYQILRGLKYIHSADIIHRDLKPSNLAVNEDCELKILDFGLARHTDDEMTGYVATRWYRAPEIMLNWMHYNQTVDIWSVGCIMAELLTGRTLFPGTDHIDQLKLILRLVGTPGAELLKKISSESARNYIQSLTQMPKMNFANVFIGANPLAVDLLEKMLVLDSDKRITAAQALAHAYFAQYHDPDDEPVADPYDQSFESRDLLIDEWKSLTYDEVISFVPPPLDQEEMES

O=C1NCc2cc(Nc3ccccc3)ccc2N1c1ccccc1 [Example 1, 1-Phenyl-2-oxo-3.4-dihydro-6-phenylaminoquinazoline]
IC50: < 50 µM
